target: T1, recombinant cGAS (aa147-522) (Homo sapiens, UniProt Q8N884); test: In vitro assay for inhibition of cGAS activity (ATP consumption, Kinase Glo); type: biochemical; conditions: 37° C. 20 minutes, read-out: Activity (Inhibition of cGAS enzyme activity in vitro, IC50)
T1 construct: recombinant cGAS (aa147-522); His6-SUMO (N, cleaved yes); made in house; host or cells: E. coli BL21/pLys
How it was run: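 Human cGAS (aa147-522) at 1.5 ng/μL incubated with serially diluted compound at 37° C for 20 min; remaining ATP read by Kinase Glo luminescence. IC50 from percent ATP consumption plotted against log compound concentration.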

T1 sequence (Q8N884 147-522): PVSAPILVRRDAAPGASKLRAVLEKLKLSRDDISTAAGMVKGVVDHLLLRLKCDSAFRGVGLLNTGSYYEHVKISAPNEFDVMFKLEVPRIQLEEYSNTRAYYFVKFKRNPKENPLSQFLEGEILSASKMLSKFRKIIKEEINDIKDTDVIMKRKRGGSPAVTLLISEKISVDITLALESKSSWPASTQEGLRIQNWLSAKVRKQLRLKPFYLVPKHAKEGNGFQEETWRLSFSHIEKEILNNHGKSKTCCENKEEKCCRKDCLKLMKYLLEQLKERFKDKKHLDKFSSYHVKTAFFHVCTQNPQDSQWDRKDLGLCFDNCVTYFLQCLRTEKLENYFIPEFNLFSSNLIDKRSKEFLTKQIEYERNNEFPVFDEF

SMILES	IC50 [µM]
CN1C(=O)S/C(=C\c2cc(OCCc3cnc(N)nc3)c(O)cc2Br)C1=O [Ex82]	≤ 0.5
COc1cc(/C=C2\SC(=O)N(C)C2=O)c(Br)cc1NS(=O)(=O)c1cnc(N)s1 [Ex61]	0.5 to 10
CN1C(=O)S/C(=C\c2cc(OCc3cncnc3)c(O)c(F)c2Br)C1=O [Ex185]	≤ 0.5
CCN1C(=O)S/C(=C\c2cc(OC)c(O)cc2Br)C1=O [Ex39]	0.5 to 10
O=C1/C(=C/c2cc(OCc3cccnc3)c(O)cc2Br)Sc2ncccc21 [Ex113]	≤ 0.5
C#CCOc1cc(/C=C2\SC(=O)N(C)C2=O)c(Br)cc1O [Ex33]	0.5 to 10
CN1C(=O)S/C(=C\c2cc(OCc3cncnc3N)c(O)c(F)c2Br)C1=O [ExA17]	≤ 0.5
CC(Oc1cc(/C=C2\Sc3ncccc3C2=O)c(Br)cc1O)c1cnc(NCCO)nc1 (centres unmarked) [ExA9]	≤ 0.5
CN1C(=O)S/C(=C\c2cc(OCc3cnc([S+](C)[O-])nc3N)c(O)c(F)c2Br)C1=O (centres unmarked) [ExA14]	≤ 0.5
COc1cc(/C=C2\Sc3ccccc3C2=O)c(Br)cc1O [Ex44]	0.5 to 10
CN1C(=O)S/C(=C\c2cc(O)c(O)cc2Br)C1=O [Ex11]	≥ 10
CN1C(=O)S/C(=C\c2cc(OCc3cccnc3)c(O)cc2Br)C1=O [Ex90]	≤ 0.5
CN1C(=O)S/C(=C\c2cc(OCc3cnc(Cl)nc3N)c(O)c(F)c2Br)C1=O [ExA19]	≤ 0.5
CN1C(=O)S/C(=C\c2cc(OCc3ccncc3)c(O)cc2Br)C1=O [Ex53]	0.5 to 10
CN1C(=O)S/C(=C\c2cc(OCc3cnc(NCc4cccnc4)nc3)c(O)c(F)c2Br)C1=O [Ex189]	0.5 to 10
CN1C(=O)S/C(=C\c2cc(OCC(=O)c3cnc(N)nc3)c(O)c(F)c2Br)C1=O [ExA10]	0.5 to 10

SMILES	IC50 [µM]
Cc1ncc(COc2cc(/C=C3\Sc4ncccc4C3=O)c(Br)cc2O)cn1 [Ex114]	≤ 0.5
COc1cc(/C=C2\Sc3ncccc3C2=O)c(Br)cc1O [Ex45]	≤ 0.5
Nc1ncc(COc2cc(/C=c3\sc4nccn4c3=O)c(Br)cc2O)cn1 [ExA11]	0.5 to 10
Nc1ncc(COc2cc(/C=C3\Sc4ncccc4C3=O)c(Br)cc2O)c(C2CC2)n1 [Ex117]	≤ 0.5
COc1cc(/C=C2\SC(=S)N(C)C2=O)c(Br)cc1O [Ex38]	≤ 0.5
CC(Oc1cc(/C=C2\Sc3ncc(F)cc3C2=O)c(Br)c(F)c1O)c1cnc(N)nc1 (centres unmarked) [ExA13]	≤ 0.5
Cc1ncc(COc2cc(/C=C3\SC(=O)N(C)C3=O)c(Br)c(F)c2O)c(N)n1 [ExA5]	≤ 0.5
CCOc1cc(/C=C2\Sc3ncccc3C2=O)c(Br)cc1O [Ex112]	≤ 0.5
COc1cc(/C=C2\SC(=O)N(C)C2=O)c(Cl)cc1O [Ex30]	≤ 0.5
CC(Oc1cc(/C=C2\Sc3ncccc3C2=O)c(Br)c(F)c1O)c1cnc(N)nc1 (centres unmarked) [Ex124]	≤ 0.5
CN1C(=O)S/C(=C\c2cc(OCc3cnc(Cl)nc3)c(O)c(F)c2Br)C1=O [Ex107]	0.5 to 10
CN1C(=O)S/C(=C\c2cc(OCc3cccnc3)c(O)c(F)c2Br)C1=O [Ex106]	≤ 0.5
CN1C(=O)S/C(=C\c2cc(OCc3cccc4[nH]ccc34)c(O)cc2Br)C1=O [Ex67]	0.5 to 10
CC(Oc1cc(/C=c2\sc3nccn3c2=O)c(Br)c(F)c1O)c1cnc(N)nc1 (centres unmarked) [ExA12]	0.5 to 10
Cc1nc(N)ncc1COc1cc(/C=C2\Sc3ncccc3C2=O)c(Br)cc1O [Ex116]	≤ 0.5

tested on: cGAS activity in THP1 cells; test: Cellular assay: ISRE-Gaussia luciferase reporter THP1 cells transfected with ISD (Interferon Stimulatory DNA); type: cell-based; conditions: Homo sapiens, THP-1; ISRE-Gaussia luciferase reporter THP1 cells transfected with 2 μg/mL ISD, 16 hours; read-out: THP1-ISD (Inhibition of cGAS activity in THP1 cells, IC50)
Method: A reporter THP1 cell line harboring a gene encoding Gaussia Luciferase under the control of 5 tandem repeats of interferon-stimulated response elements (ISRE) was used to test inhibition of cGAS activity by synthetic compounds in human cells. These cells were plated on 96-well plates at 0.3×10^6/well and incubated with various concentrations of compounds or DMSO for 5 min, followed by transfection of 2 μg/mL of ISD (Interferon Stimulatory DNA, a 45 bp DNA oligo) or mock transfected using lipofectamine 2000 (Life Technology) method, according to manufacturer's instructions. 16 hours later, 15 μL of the media from each well is transferred to a new plate, 50 μL of solution containing 50 mM Hepes-NaOH, 50 mM NaCl, 10 mM EDTA, 1 μM of coeleanterazine was added to each well and luminescence was measured immediately. Fold increase in luminescence compared to mock transfection is plotted against concentrations of each compound, and IC50 is calculated using Graphpad. To evaluate the specificity of a compound, the same procedure was performed except that cells were transfected with 2 μg/mL poly(I:C) or infected with Sendai Virus (SeV) at 50 Unit/mL, which are known to activate the RIG-I-MAVS pathway. A specific inhibitory compound should inhibit interferon induction by DNA but have minimal effect on poly(I:C) or Sendai virus induced interferon reporter gene expression.

SMILES	IC50 [µM]
CN1C(=O)S/C(=C\c2cc(OCCc3cnc(N)nc3)c(O)cc2Br)C1=O [Ex82]	≤ 2.5
COc1cc(/C=C2\SC(=O)N(C)C2=O)c(Br)cc1NS(=O)(=O)c1cnc(N)s1 [Ex61]	≤ 2.5
CN1C(=O)S/C(=C\c2cc(OCc3cncnc3)c(O)c(F)c2Br)C1=O [Ex185]	2.5 to 10
CCN1C(=O)S/C(=C\c2cc(OC)c(O)cc2Br)C1=O [Ex39]	2.5 to 10
O=C1/C(=C/c2cc(OCc3cccnc3)c(O)cc2Br)Sc2ncccc21 [Ex113]	2.5 to 10
C#CCOc1cc(/C=C2\SC(=O)N(C)C2=O)c(Br)cc1O [Ex33]	2.5 to 10
CN1C(=O)S/C(=C\c2cc(OCc3cncnc3N)c(O)c(F)c2Br)C1=O [ExA17]	≥ 10
CC(Oc1cc(/C=C2\Sc3ncccc3C2=O)c(Br)cc1O)c1cnc(NCCO)nc1 (centres unmarked) [ExA9]	2.5 to 10
CN1C(=O)S/C(=C\c2cc(OCc3cnc([S+](C)[O-])nc3N)c(O)c(F)c2Br)C1=O (centres unmarked) [ExA14]	≥ 10
COc1cc(/C=C2\Sc3ccccc3C2=O)c(Br)cc1O [Ex44]	≤ 2.5
CN1C(=O)S/C(=C\c2cc(O)c(O)cc2Br)C1=O [Ex11]	2.5 to 10
CN1C(=O)S/C(=C\c2cc(OCc3cccnc3)c(O)cc2Br)C1=O [Ex90]	2.5 to 10
CN1C(=O)S/C(=C\c2cc(OCc3cnc(Cl)nc3N)c(O)c(F)c2Br)C1=O [ExA19]	2.5 to 10
CN1C(=O)S/C(=C\c2cc(OCc3ccncc3)c(O)cc2Br)C1=O [Ex53]	≤ 2.5
CN1C(=O)S/C(=C\c2cc(OCc3cnc(NCc4cccnc4)nc3)c(O)c(F)c2Br)C1=O [Ex189]	2.5 to 10
CN1C(=O)S/C(=C\c2cc(OCC(=O)c3cnc(N)nc3)c(O)c(F)c2Br)C1=O [ExA10]	2.5 to 10

SMILES	IC50 [µM]
Cc1ncc(COc2cc(/C=C3\Sc4ncccc4C3=O)c(Br)cc2O)cn1 [Ex114]	2.5 to 10
COc1cc(/C=C2\Sc3ncccc3C2=O)c(Br)cc1O [Ex45]	2.5 to 10
Nc1ncc(COc2cc(/C=c3\sc4nccn4c3=O)c(Br)cc2O)cn1 [ExA11]	≤ 2.5
Nc1ncc(COc2cc(/C=C3\Sc4ncccc4C3=O)c(Br)cc2O)c(C2CC2)n1 [Ex117]	2.5 to 10
COc1cc(/C=C2\SC(=S)N(C)C2=O)c(Br)cc1O [Ex38]	2.5 to 10
CC(Oc1cc(/C=C2\Sc3ncc(F)cc3C2=O)c(Br)c(F)c1O)c1cnc(N)nc1 (centres unmarked) [ExA13]	2.5 to 10
Cc1ncc(COc2cc(/C=C3\SC(=O)N(C)C3=O)c(Br)c(F)c2O)c(N)n1 [ExA5]	2.5 to 10
CCOc1cc(/C=C2\Sc3ncccc3C2=O)c(Br)cc1O [Ex112]	2.5 to 10
COc1cc(/C=C2\SC(=O)N(C)C2=O)c(Cl)cc1O [Ex30]	≤ 2.5
CC(Oc1cc(/C=C2\Sc3ncccc3C2=O)c(Br)c(F)c1O)c1cnc(N)nc1 (centres unmarked) [Ex124]	2.5 to 10
CN1C(=O)S/C(=C\c2cc(OCc3cnc(Cl)nc3)c(O)c(F)c2Br)C1=O [Ex107]	2.5 to 10
CN1C(=O)S/C(=C\c2cc(OCc3cccnc3)c(O)c(F)c2Br)C1=O [Ex106]	2.5 to 10
CN1C(=O)S/C(=C\c2cc(OCc3cccc4[nH]ccc34)c(O)cc2Br)C1=O [Ex67]	2.5 to 10
CC(Oc1cc(/C=c2\sc3nccn3c2=O)c(Br)c(F)c1O)c1cnc(N)nc1 (centres unmarked) [ExA12]	≥ 10
Cc1nc(N)ncc1COc1cc(/C=C2\Sc3ncccc3C2=O)c(Br)cc1O [Ex116]	≤ 2.5

Source: patent US12065416B2, “cGAS antagonist compounds” (IMMUNESENSOR THERAPEUTICS, INC., priority 2016, dated 2024)
